{
  "source": "ChEMBL document CHEMBL3091433",
  "about": "“Structure-based design of substituted hexafluoroisopropanol-arylsulfonamides as modulators of RORc” (Bioorg Med Chem Lett, 2013)",
  "key": {"Bile acid receptor": {"target": "T1, Bile acid receptor (Homo sapiens, UniProt Q96RI1)", "T1 sequence (Q96RI1 whole entry)": "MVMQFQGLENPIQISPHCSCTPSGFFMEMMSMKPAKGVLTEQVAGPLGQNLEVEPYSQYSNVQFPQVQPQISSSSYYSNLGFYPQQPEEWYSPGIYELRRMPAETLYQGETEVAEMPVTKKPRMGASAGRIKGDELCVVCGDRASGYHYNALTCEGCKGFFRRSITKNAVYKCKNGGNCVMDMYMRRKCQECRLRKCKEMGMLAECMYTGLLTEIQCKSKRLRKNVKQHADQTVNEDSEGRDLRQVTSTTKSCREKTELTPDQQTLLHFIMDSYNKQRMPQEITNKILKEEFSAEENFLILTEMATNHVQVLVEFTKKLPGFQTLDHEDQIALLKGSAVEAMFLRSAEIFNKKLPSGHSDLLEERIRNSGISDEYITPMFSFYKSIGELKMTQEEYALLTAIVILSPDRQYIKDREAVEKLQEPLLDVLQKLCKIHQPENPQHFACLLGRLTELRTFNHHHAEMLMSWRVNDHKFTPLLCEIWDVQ", "assay": "Agonist activity at GAL4-fused human FXR expressed in HEK293T cells assessed as activation of basal transcriptional activity after 20 hrs by dual-glo luciferase reporter gene assay", "type": "cell-based, HEK-293T"}, "PBMC [1]": {"tested_on": "PBMC", "assay": "Antiinflammatory activity in human PBMC assessed as inhibition of IL-17 production after 48 hrs by Sandwich ELISA relative to control", "type": "functional"}, "PBMC [2]": {"tested_on": "PBMC", "assay": "Cytotoxicity against human PBMC assessed as effect on cell physiology after 48 hrs by CellTiter-Glo assay"}, "[3]": {"target": "T2, Nuclear receptor ROR-gamma (Homo sapiens, UniProt P51449)", "T2 sequence (P51449 whole entry)": "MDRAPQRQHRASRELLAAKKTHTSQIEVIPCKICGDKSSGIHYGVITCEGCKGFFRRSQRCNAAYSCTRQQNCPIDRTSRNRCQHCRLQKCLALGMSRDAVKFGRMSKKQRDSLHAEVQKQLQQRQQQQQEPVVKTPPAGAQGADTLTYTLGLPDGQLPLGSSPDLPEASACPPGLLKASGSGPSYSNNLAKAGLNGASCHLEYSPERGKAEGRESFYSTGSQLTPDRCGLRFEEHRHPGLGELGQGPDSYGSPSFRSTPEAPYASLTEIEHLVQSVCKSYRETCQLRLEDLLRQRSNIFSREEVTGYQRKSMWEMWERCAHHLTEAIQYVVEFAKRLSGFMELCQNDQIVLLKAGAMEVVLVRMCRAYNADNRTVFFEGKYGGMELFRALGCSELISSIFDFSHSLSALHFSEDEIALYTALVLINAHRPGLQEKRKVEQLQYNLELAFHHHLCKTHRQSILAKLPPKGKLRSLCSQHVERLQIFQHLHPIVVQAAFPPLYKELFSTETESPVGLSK", "description": "Inverse agonist activity at GAL4-fused human RORc expressed in HEK293T cells assessed as suppression of basal transcriptional activity after 20 hrs by dual-glo luciferase reporter gene assay"}, "[4]": {"target": "T3, Oxysterols receptor LXR-beta (Homo sapiens, UniProt P55055)", "T3 sequence (P55055 whole entry)": "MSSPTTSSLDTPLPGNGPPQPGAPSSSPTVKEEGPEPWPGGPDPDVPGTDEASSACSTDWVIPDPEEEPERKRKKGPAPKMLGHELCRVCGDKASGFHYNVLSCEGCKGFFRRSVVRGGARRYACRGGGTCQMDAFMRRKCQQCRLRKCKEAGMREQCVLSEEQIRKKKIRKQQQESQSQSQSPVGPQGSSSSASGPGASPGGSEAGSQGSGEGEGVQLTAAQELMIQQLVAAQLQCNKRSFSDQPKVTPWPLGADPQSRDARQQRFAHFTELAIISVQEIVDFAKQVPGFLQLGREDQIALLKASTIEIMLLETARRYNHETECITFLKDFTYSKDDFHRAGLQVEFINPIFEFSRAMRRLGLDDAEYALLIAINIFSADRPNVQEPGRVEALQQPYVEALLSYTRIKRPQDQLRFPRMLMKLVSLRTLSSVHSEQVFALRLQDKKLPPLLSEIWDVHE", "description": "Agonist activity at GAL4-fused human LXRbeta expressed in HEK293T cells assessed as activation of basal transcriptional activity after 20 hrs by dual-glo luciferase reporter gene assay"}, "PBMC [5]": {"tested_on": "PBMC", "assay": "cells", "conditions": "Homo sapiens, 48 h"}, "PBMC [6]": {"tested_on": "PBMC", "assay": "Inhibition of IFNgamma production in human PBMC after 48 hrs by Sandwich ELISA"}},
  "data": [
    {"smiles": "O=S(=O)(c1ccc(F)cc1)N(CC(F)(F)F)c1ccc(C(O)(C(F)(F)F)C(F)(F)F)cc1", "values": [
      {"measurement": "EC50", "setting": "Bile acid receptor", "result": 1000, "unit": "nM"},
      {"measurement": "Imax", "setting": "PBMC [1]", "result": 83, "unit": "%"},
      {"measurement": "EC50", "setting": "PBMC [2]", "result": "> 20000", "unit": "nM"},
      {"measurement": "EC50", "setting": "[3]", "result": 89, "unit": "nM"},
      {"measurement": "EC50", "setting": "[4]", "result": 385, "unit": "nM"},
      {"measurement": "EC50", "setting": "PBMC [5]", "result": 132, "unit": "nM"},
      {"measurement": "EC50", "setting": "PBMC [6]", "result": "> 20000", "unit": "nM"}
    ]},
    {"smiles": "N#Cc1ccc(S(=O)(=O)N(CC(F)(F)F)c2ccc(C(O)(C(F)(F)F)C(F)(F)F)cc2)cc1", "values": [
      {"measurement": "EC50", "setting": "Bile acid receptor", "result": 3000, "unit": "nM"},
      {"measurement": "Imax", "setting": "PBMC [1]", "result": 74, "unit": "%"},
      {"measurement": "EC50", "setting": "PBMC [2]", "result": "> 20000", "unit": "nM"},
      {"measurement": "EC50", "setting": "[3]", "result": 192, "unit": "nM"},
      {"measurement": "EC50", "setting": "[4]", "result": 902, "unit": "nM"},
      {"measurement": "EC50", "setting": "PBMC [5]", "result": 1000, "unit": "nM"},
      {"measurement": "EC50", "setting": "PBMC [6]", "result": "> 20000", "unit": "nM"}
    ]},
    {"smiles": "CCN(c1ccc(C(O)(C(F)(F)F)C(F)(F)F)cc1)S(=O)(=O)c1ccccc1", "values": [
      {"measurement": "EC50", "setting": "Bile acid receptor", "result": 9000, "unit": "nM"},
      {"measurement": "EC50", "setting": "[3]", "result": 593, "unit": "nM"},
      {"measurement": "EC50", "setting": "[4]", "result": 246, "unit": "nM"}
    ]}
  ]
}
